One assay concerns the target JNK1 (Homo sapiens, UniProt P45983). The experiment in a line: In vitro JNK1 Assay (TR-FRET, phosphorylation of GST-c-Jun). The class given is biochemical. Conditions: 0.2 nM JNK1, 26.7 nM GST-c-Jun, 2 μM ATP. Here is the method: Phosphorylation of GST-c-Jun protein (amino acid residues 1-79) was measured as JNK1 activity. […] The reaction buffer contained 50 mM HEPES, pH 7.0, 10 mM MgCl2, 1 mM DTT, 0.1 mM Na3 VO4 and 0.2 mg/mL BSA. After 30 min. incubation at room temperature, the reaction was terminated by adding buffer containing 8 mM EDTA and a polyclonal anti-phospho-c-Jun antibody (Cell Signaling #9261L), followed by an additional incubation of 30 min. at room temperature. […] Time-resolved Fluorescence Resonance Energy Transfer (TR-FRET) signals were measured 1 hr. later on the EnVision reader (Perkin Elmer). Compound potency was assessed at 10 serially diluted concentrations. Percentage of inhibition at each concentration was determined to generate an IC50 value for each compound.

Assay [1] concerns phospho(Ser63)-c-jun in HK-2 cells. The experiment in a line: Cell-based assay for JNK inhibitors: in-cell ELISA of TNFα-stimulated phospho(Ser63)-c-jun in HK-2 cells. As to conditions: Homo sapiens, 10 ng/mL TNFα, 60 min preincubation with compound. Here is the method:
Cell-Based Assay for JNK Inhibitors
The cell-based assay employed the in-cell ELISA method to determine the ability of compounds to prevent the generation of phospho(Ser63)-c-jun in HK-2 cells (human proximal tubule cells) in response to stimulation with tumor necrosis factor α (TNFα). In brief, for quantification of phospho(Ser63)-c-jun, the cells (in 96-well format) were fixed and permeablized then incubated sequentially with a rabbit anti-phospho-c-jun First Antibody specific for the presence of the phospho-Ser63 epitope and a donkey anti-rabbit IgG Second Antibody linked to horseradish peroxidase (HRP) for colorimetric quantitation of binding. For determination of non-specific binding of the First Antibody, Blank wells were preincubated with a mouse anti-phospho(Ser63)-c-jun Blocking Antibody that prevented specific binding of the First Antibody to the phospho-Ser63 epitope, but which was not recognized by the donkey anti-rabbit IgG Second Antibody. […] Blank wells received no TNFα stimulation or compound. Additional Control wells received TNFα stimulation, but no compound. The signal obtained in this case was considered the value for 0% inhibition (Control value).
Stock cultures of HK-2 cells (ATCC, Manassas, Va.) were grown under a 5% CO2/[…] atmosphere at 37 degrees C. in Keratinocyte-SFM medium (KSFM, Invitrogen, Grand Island, N.Y.) containing 5 μg/L epidermal growth factor and 5 mg/L bovine pituitary extract (both supplied with the medium), additionally supplemented with 10% (v/v) fetal calf serum (FCS; Invitrogen, Grand Island, N.Y.) and 1% (v/v) antibiotic-antimycotic (ABAM: Sigma, St. Louis, Mo.). For assays, cells were seeded in collagen coated 96-well polystyrene plates (BD Biosciences, Franklin Lakes, N.J.) at a density of 40,000 cells/well and cultured for 24 h in the same medium (100 μL/well) followed by a further 16-24 h in 100 μL of similar medium, but without FCS. […] Cells were incubated for a further 30 minutes and then the medium was aspirated and the wells washed with 100 μL/well PBS followed by the addition of 100 μL 3.7% (v/v) Formaldehyde (Fisher Scientific, Fair Lawn, N.J.) in PBS. Plates were then allowed to stand at room temperature for 20 minutes before being washed with 200 μL/well of PBS. (Further steps were performed immediately or the plates were stored at 4 degrees C. and the assay completed the next day.) To each well was added 100 μL 1% (v/v) TritonX-100 (Sigma, St. Louis, Mo.) in PBS followed by 20 minutes standing at room temperature, washing with 200 μL/well PBS, the addition of 100 μL/well of Quenching buffer (1% (v/v) hydrogen peroxide (Sigma, St. Louis, Mo.) and 0.1% (w/v) sodium azide (Fisher Scientific, Fair Lawn, N.J.)) in PBS and a further 20 minutes at room temperature. Plates were then washed twice with 200 μL/well of 0.1% (v/v) Tween-20 (Teknova, Hollister, Calif.) in PBS before addition of 200 μL/well of 2% BSA/0.10% Tween-20 in PBS and a further 1 hour at room temperature. At this time, buffer was removed from Blank wells and replaced with 90 μL/well of mouse anti-phospho-c-jun-Ser63 (BD Bioscience, 558036) diluted 1:4000 in PBS containing 1% BSA/0.1% Tween-20 (Antibody Dilution Buffer). All other wells are replaced with 90 μL/well of rabbit anti-phospho-c-jun-Ser63 (Cell Signaling, 9261) diluted 1:250 in Antibody Dilution Buffer. After a further one hour, rabbit anti-phospho-c-jun-Ser63 is added directly to the solution in the Blank wells resulting in 1:250 dilution of this antibody. Plates were then placed on a slowly rotating platform at 4 degrees C. overnight. Wells were then washed thrice with 200 μL/well PBS/0.1% Tween-20. After addition of the third wash, the plates were placed on a slowly rotating platform for 15 minutes at room temperature. […]

Chain of JNK1 (P45983 whole entry, species assumed, the tested form may be a part): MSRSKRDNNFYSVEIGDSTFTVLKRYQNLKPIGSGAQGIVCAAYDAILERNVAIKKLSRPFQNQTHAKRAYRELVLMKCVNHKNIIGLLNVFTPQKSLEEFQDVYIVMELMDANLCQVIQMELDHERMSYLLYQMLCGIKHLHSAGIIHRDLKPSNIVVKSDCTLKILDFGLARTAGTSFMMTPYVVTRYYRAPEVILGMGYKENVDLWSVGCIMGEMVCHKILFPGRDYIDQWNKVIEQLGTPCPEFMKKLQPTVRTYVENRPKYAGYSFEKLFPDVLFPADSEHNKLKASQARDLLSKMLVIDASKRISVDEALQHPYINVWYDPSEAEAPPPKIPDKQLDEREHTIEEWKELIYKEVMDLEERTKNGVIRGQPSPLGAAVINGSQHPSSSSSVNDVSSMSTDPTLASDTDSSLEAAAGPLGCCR

As to `COC(=O)c1c(Cc2ccc(C(=O)N[C@@H]3[C@@H]4C[C@@H]5C[C@H]3C[C@@](NCC(C)(C)O)(C5)C4)cc2)c(=O)c2ccc(Cl)cc2n1-c1ccccc1` [Compound I-16, rel-7-Chloro-3-{4-[(1S,2S,3R,5S,7S)-5-(2-hydroxy-2-methyl-propylamino)-adamantan-2-ylcarbamoyl]-benzyl}-4-oxo-1-phenyl-1,4-dihydro-quinoline-2-carboxylic acid methyl ester], half-maximal inhibition at JNK1 (IC50) required 10 nM. The EC50 in assay [1] worked out at 1900 nM.

`COC(=O)c1c(Cc2ccc(C(=O)N[C@@H]3[C@@H]4C[C@@H]5C[C@H]3C[C@@](NC(C)=O)(C5)C4)cc2)c(=O)c2cccnc2n1-c1ccccc1` [Compound I-17, rel-3-[4-((1S,2S,3R,5S,7S)-5-Acetylamino-adamantan-2-ylcarbamoyl)-benzyl]-4-oxo-1-phenyl-1,4-dihydro-[1,8]naphthyridine-2-carboxylic acid methyl ester] came in with an IC50 on JNK1 of 26 nM. The EC50 in assay [1] is 3100 nM.

Consider `COC(=O)c1c(Cc2ccc(C(=O)N[C@@H]3[C@@H]4C[C@@H]5C[C@H]3C[C@@](NS(=O)(=O)C3CC3)(C5)C4)cc2)c(=O)c2cccnc2n1-c1ccccc1` [Compound I-18, rel-3-[4-((1S,2S,3R,5S,7S)-5-Cyclopropanesulfonylamino-adamantan-2-ylcarbamoyl)-benzyl]-4-oxo-1-phenyl-1,4-dihydro-[1,8]naphthyridine-2-carboxylic acid methyl ester], for which, on JNK1, the midpoint of inhibition, the IC50, lay at 5 nM. In addition, the EC50 in assay [1] was determined as 1800 nM.

`COC(=O)c1c(Cc2ccc(C(=O)N[C@@H]3[C@@H]4C[C@@H]5C[C@H]3C[C@@](NS(C)(=O)=O)(C5)C4)cc2)c(=O)c2cccnc2n1-c1ccccc1` [Compound I-19, rel-3-[4-((1S,2S,3R,5S,7S)-5-Methanesulfonylamino-adamantan-2-ylcarbamoyl)-benzyl]-4-oxo-1-phenyl-1,4-dihydro-[1,8]naphthyridine-2-carboxylic acid methyl ester] yielded an IC50 against JNK1 of 11 nM. Further, the EC50 in assay [1] came to 2100 nM.

`COC(=O)c1c(Cc2ccc(C(=O)N[C@@H]3[C@@H]4C[C@@H]5C[C@H]3C[C@@](NC(=O)C(C)(C)C)(C5)C4)cc2)c(=O)c2cccnc2n1-c1ccccc1` [Compound I-20, rel-3-{4-[(1S,2S,3R,5S,7S)-5-(2,2-Dimethyl-propionylamino)-adamantan-2-ylcarbamoyl]-benzyl}-4-oxo-1-phenyl-1,4-dihydro-[1,8]naphthyridine-2-carboxylic acid methyl ester] came in with an IC50 against JNK1 of 39 nM. For the same compound, the EC50 in assay [1] was 5300 nM.

At JNK1, `COC(=O)c1c(Cc2ccc(C(=O)N[C@@H]3[C@@H]4C[C@@H]5C[C@H]3C[C@@](NC(=O)C(C)(C)OC(C)=O)(C5)C4)cc2)c(=O)c2cccnc2n1-c1ccccc1` [Compound I-21, rel-3-{4-[(1S,2S,3R,5S,7S)-5-(2-Acetoxy-2-methyl-propionylamino)-adamantan-2-ylcarbamoyl]-benzyl}-4-oxo-1-phenyl-1,4-dihydro-[1,8]naphthyridine-2-carboxylic acid methyl ester] yielded an IC50 of 25 nM. In assay [1], the EC50 amounted to 4800 nM.

On JNK1, `COC(=O)c1c(Cc2ccc(C(=O)N[C@@H]3[C@@H]4C[C@@H]5C[C@H]3C[C@@](NC(=O)C(C)(C)O)(C5)C4)cc2)c(=O)c2cccnc2n1-c1ccccc1` [Compound I-22, rel-3-{4-[(1S,2S,3R,5S,7S)-5-(2-Hydroxy-2-methyl-propionylamino)-adamantan-2-ylcarbamoyl]-benzyl}-4-oxo-1-phenyl-1,4-dihydro-[1,8]naphthyridine-2-carboxylic acid methyl ester] registered an IC50 of 22 nM. Also, in assay [1], the EC50 turned out to be 4100 nM.

For the origin of these results see patent US8471027B2, “Adamantyl compounds” (Hoffmann-La Roche Inc., priority 2011, dated 2013).
